Results taken from US9078899B2, “Pyrazolyl-based carboxamides II” (Grünenthal GmbH, priority 2013, dated 2015).
Where two headings read alike, the source gives them in different places.

What was measured:
CRAC channel = target: T1, CRAC channel (Homo sapiens, UniProt Q96D31); assay: HEK Calcium Influx Assay (FLIPR); assay type: cell-based
T1 construct: host or cells: HEK293
Method: The effect of compounds of the invention on intracellular [Ca^2+] was tested in the HEK293 cell line (ECACC).
HEK293 cells were cultured in DMEM/F12/Glutamax (Gibco) containing 10% FCS (Gibco), and maintained at 37° C., 5% CO2. Cell were split twice a week [3*10^6 (Mon-Thu) and 1*10^6 (Thu-Mon) cells/50 ml medium in T-175 ZK culture flasks, respectively]. Twenty four hours pre-experiment, cells were seeded on 96 well plates (Poly-D-Lysine 96well Black/Clear Plate, BD Biocoat REF 356640) at a density of 40,000 cells/well in DMEM/F12 (Gibco) containing 10% FCS (Gibco), and maintained at 37° C., 5% CO2.
Prior to store-depletion, cell culture medium was removed and cells were loaded with the a Calcium-sensitive fluorescent dye comprised within the Calcium-4-assay kit (Molecular Devices) in nominally Ca^2+-free HBS buffer (140 mM NaCl, 4 mM KCl, 0.2 mM MgCl2, 11 mM D-glucose, and 10 mM HEPES, pH 7.4) according to manufacturer's instruction for 60 min at 37° C., 5% CO2.
Passive depletion of intracellular Ca^2+-stores was then triggered by employing the SERCA inhibitor thapsigargin (2 μM final) for 10 min in the dark (RT). To prevent immediate Ca^2+-entry via the activated Store-operated channels (SOCs), cells were maintained in Ca^2+-free HBS buffer comprising 100 μM EGTA during store-depletion.
Intracellular changes in [Ca^2+] were subsequently monitored with the FLIPR device (Molecular Devices). In brief, baseline imaging post-store depletion was allowed for 1 min before adjusting the extracellular buffer to 3 mM CaCl2. Increases in intracellular [Ca^2+] due to pre-activated SOC channels were monitored for 15 min until intracellular Ca^2+ levels had declined into a steady-state. Finally, compounds were administered and Ca^2+ signals were recorded for additional 10 min.
Inhibition of endogenous SOC in HEK293 cells was quantified employing the average Ca^2+ signal measured from 9.5-10 min post-administration. Zero percent inhibition (MAX) was defined as the Ca^2+ signal recorded from wells to which DMSO-only had been added instead of compound. Hundred percent inhibition (MIN) was defined as the signal obtained from wells in which cells haven't been treated with TG prior to Ca^2+ addition and to which DMSO-only had been added instead of compound. For routine IC50 determinations of compounds, 8 concentrations of a serial dilution (1:3.16) were tested, starting off from 10 μM. Reliable IC50's could consequently be determined only, if they were at least sub 2.5-3 μM.

[1] = tested on: Interleukin-2 (IL-2) production/release; assay: Jurkat IL-2 Production Assay; assay type: cell-based; conditions: Homo sapiens; Jurkat T cells clone E6-1, 15 μg/ml PHA for 22 hours, IL-2 in supernatant
Method: Jurkat IL-2 Production Assay
The effect of compounds of the invention on Interleukin-2 (IL-2) production/release was tested in the Jurkat T cell line (ECACC) clone E6-1.
Jurkat T cells were cultured in DMEM/F12/Glutamax (Gibco) containing 10% FCS (Gibco), and maintained at 37° C., 5% CO2. Cell were split twice a week [5*10^6 (Mon-Thu) and 1*10^7 (Thu-Mon) cells/50 ml medium in T-175 ZK culture flasks, respectively].
Prior to experiment, cells were seeded on 96 well plates (Cellstar 96 Well; Cat No. 655180, Greiner bio-one) at a density of 5*10^5 cells/well in DMEM/F12/Glutamax (Gibco) containing 10% FCS (Gibco), and incubated for 60 min at 37° C., 5% CO2. Subsequently, compounds were added and cells were allowed to incubate for 30 min at 37° C., 5% CO2. Cells were then stimulated with 15 μg/ml Phytohemagglutinin (PHA; Sigma) for 22 hours at 37° C., 5% CO2.
Before sampling of the supernatants, cells were spun down (200*g/5 min/RT). The amount of IL-2 released into the supernatant was quantified with the human IL-2 AlphaLisa kit (Perkin Elmer) according to manufacturer's instructions. Luminescence proximity measurements were carried out in the Synergy H4 reader (BioTek) employing the fluorescence setting of the reader (ex: 680/30 nm; em: 620/40 nm).
Inhibition of IL-Production/Release in/from Jurkat T Cells was Quantified as Follows:
Zero percent inhibition (MAX) was defined as the [IL-2] determined in supernatants derived from cells to which PHA & DMSO-only had been added instead of compound. Hundred percent inhibition (MIN) was defined as the [IL-2] determined in supernatants derived from cells that had been pre-treated with 1 μM CyclosporineA (Sigma) before the addition of 15 μg/ml PHA.
For routine IC50 determinations of compounds, 8 concentrations of a serial dilution (1:3.16) were tested, starting off from 10 μM.

[2] = 10 μM, endogenous SOC in HEK293 cells, thapsigargin store depletion, Ca2+ signal 9.5-10 min post-administration, read-out: % inhib.[@ 10 μM] FLIPR

T1 sequence (Q96D31 whole entry): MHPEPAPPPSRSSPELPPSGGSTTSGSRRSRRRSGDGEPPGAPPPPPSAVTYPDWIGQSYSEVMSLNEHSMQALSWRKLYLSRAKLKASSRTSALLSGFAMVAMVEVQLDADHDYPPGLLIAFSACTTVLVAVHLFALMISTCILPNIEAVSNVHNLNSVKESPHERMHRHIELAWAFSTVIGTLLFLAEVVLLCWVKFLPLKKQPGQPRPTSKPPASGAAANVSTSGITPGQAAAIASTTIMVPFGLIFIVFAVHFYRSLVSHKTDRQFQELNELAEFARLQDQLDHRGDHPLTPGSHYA

SMILES	inhibition at 10 µM (CRAC channel; [2]) [%]	IC50 [1] [µM]	inhibition at 10 µM (CRAC channel; HEK293, read-out: % inhib.[@ 10 μM] FLIPR) [%]
COc1ccccc1-c1cc(C(=O)Nc2c(F)cccc2F)nn1C [Example 1, N-(2,6-Difluoro-phenyl)-5-(2-methoxyphenyl)-1-methyl-1H-pyrazole-3-carboxylic acid amide]	> 70	1 to 5	
COc1ccc(OC)c(-c2cc(C(=O)Nc3ccc(F)cc3F)nn2C)c1 [Example 2, N-(2,4-Difluoro-phenyl)-5-(2,5-dimethoxyphenyl)-1-methyl-1H-pyrazole-3-carboxylic acid amide]	> 70	1 to 5	
CCOc1ccc(OC)cc1-c1cc(C(=O)Nc2c(F)cccc2F)nn1C [Example 4, N-(2,6-Difluoro-phenyl)-5-(2-ethoxy-5-methoxy-phenyl)-1-methyl-1H-pyrazole-3-carboxylic acid amide]	> 70	0.5 to 1	
Cn1nc(C(=O)Nc2c(F)cccc2F)cc1-c1ccccc1C(F)(F)F [Example 7, N-(2,6-Difluoro-phenyl)-1-methyl-5-[2-(trifluoromethyl)-phenyl]-1H-pyrazole-3-carboxylic acid amide]	> 70	0.5 to 1	
COc1ccc(OC(F)(F)F)c(-c2cc(C(=O)Nc3c(F)cccc3F)nn2C)c1 [Example 8, N-(2,6-Difluoro-phenyl)-5-[5-methoxy-2-(trifluoromethyloxy)-phenyl]-1-methyl-1H-pyrazole-3-carboxylic acid amide]	> 70	< 0.5	
COc1ccc(F)cc1-c1cc(C(=O)Nc2c(F)cccc2F)nn1C [Example 10, N-(2,6-Difluoro-phenyl)-5-(5-fluoro-2-methoxy-phenyl)-1-methyl-1H-pyrazole-3-carboxylic acid amide]	> 70	0.5 to 1	
COc1ccc(OC)c(-c2c(N)c(C(=O)Nc3ccncc3F)nn2C)c1 [Example 48, 4-Amino-5-(2,5-dimethoxyphenyl)-N-(3-fluoro-pyridin-4-yl)-1-methyl-1H-pyrazole-3-carboxylic acid amide]	> 70		
Cn1nc(C(=O)Nc2c(F)cccc2F)cc1-c1c(F)cccc1F [Example 50, N,5-Bis(2,6-difluoro-phenyl)-1-methyl-1H-pyrazole-3-carboxylic acid amide]	50 to 70		
Cn1nc(C(=O)Nc2ccccc2OC(F)(F)F)cc1-c1c(F)cccc1C(F)(F)F [Example 54, 5-[2-Fluoro-6-(trifluoromethyl)-phenyl]-1-methyl-N-[2-(trifluoromethyloxy)-phenyl]-1H-pyrazole-3-carboxylic acid amide]	50 to 70		
Cn1nc(C(=O)Nc2ccc(F)cc2F)cc1-c1c(F)cccc1C(F)(F)F [Example 55, N-(2,4-Difluoro-phenyl)-5-[2-fluoro-6-(trifluoromethyl)-phenyl]-1-methyl-1H-pyrazole-3-carboxylic acid amide]	50 to 70		
Cn1nc(C(=O)Nc2ccccc2C#N)cc1-c1c(F)cccc1C(F)(F)F [Example 56, N-(2-Cyano-phenyl)-5-[2-fluoro-6-(trifluoromethyl)-phenyl]-1-methyl-1H-pyrazole-3-carboxylic acid amide]	50 to 70		
Cn1nc(C(=O)Nc2ccc(Cl)cc2Cl)cc1-c1c(F)cccc1C(F)(F)F [Example 57, N-(2,4-Dichlorophenyl)-5-[2-fluoro-6-(trifluoromethyl)-phenyl]-1-methyl-1H-pyrazole-3-carboxylic acid amide]			50 to 70
COc1cc(F)c(NC(=O)c2cc(-c3c(F)cccc3C(F)(F)F)n(C)n2)c(F)c1 [Example 58, N-(2,6-Difluoro-4-methoxy-phenyl)-5-[2-fluoro-6-(trifluoromethyl)-phenyl]-1-methyl-1H-pyrazole-3-carboxylic acid amide]	50 to 70		
Cn1nc(C(=O)Nc2ccccc2C(F)(F)F)cc1-c1c(F)cccc1C(F)(F)F [Example 60, 5-[2-Fluoro-6-(trifluoromethyl)-phenyl]-1-methyl-N-[2-(trifluoromethyl)-phenyl]-1H-pyrazole-3-carboxylic acid amide]	> 70		
Cn1nc(C(=O)Nc2ccccc2F)cc1-c1c(F)cccc1C(F)(F)F [Example 61, N-(2-Fluorophenyl)-5-[2-fluoro-6-(trifluoromethyl)-phenyl]-1-methyl-1H-pyrazole-3-carboxylic acid amide]	> 70		

Now from value to molecule, other results behind:

inhibition at 10 µM (CRAC channel; [2]) [%]	IC50 [1] [µM]	SMILES	inhibition at 10 µM (CRAC channel; HEK293, read-out: % inhib.[@ 10 μM] FLIPR) [%]
< 50	1 to 5	CCOc1ccc(OC)cc1-c1cc(C(=O)Nc2ccncc2F)nn1C [Example 3, 5-(2-Ethoxy-5-methoxy-phenyl)-N-(3-fluoro-pyridin-4-yl)-1-methyl-1H-pyrazole-3-carboxylic acid amide]	
> 70	1 to 5	COc1ccc(OC(F)(F)F)c(-c2cc(C(=O)Nc3ccncc3F)nn2C)c1 [Example 9, N-(3-Fluoro-pyridin-4-yl)-5-[5-methoxy-2-(trifluoromethyloxy)-phenyl]-1-methyl-1H-pyrazole-3-carboxylic acid amide]	
50 to 70		Cc1cccc(Cl)c1NC(=O)c1cc(-c2c(F)cccc2F)n(C)n1 [Example 52, N-(2-Chloro-6-methyl-phenyl)-5-(2,6-difluoro-phenyl)-1-methyl-1H-pyrazole-3-carboxylic acid amide]	
50 to 70		Cc1cncc(F)c1NC(=O)c1cc(-c2c(F)cccc2F)n(C)n1 [Example 53, 5-(2,6-Difluoro-phenyl)-N-(3-fluoro-5-methyl-pyridin-4-yl)-1-methyl-1H-pyrazole-3-carboxylic acid amide]	
> 70		Cc1cccc(F)c1NC(=O)c1cc(-c2c(F)cccc2C(F)(F)F)n(C)n1 [Example 59, N-(2-Fluoro-6-methyl-phenyl)-5-[2-fluoro-6-(trifluoromethyl)-phenyl]-1-methyl-1H-pyrazole-3-carboxylic acid amide]	
> 70		Cn1nc(C(=O)Nc2ccncc2F)cc1-c1c(F)cccc1C(F)(F)F [Example 62, N-(3-Fluoro-pyridin-4-yl)-5-[2-fluoro-6-(trifluoromethyl)-phenyl]-1-methyl-1H-pyrazole-3-carboxylic acid amide]	
> 70		Cc1cncc(F)c1NC(=O)c1cc(-c2c(F)cccc2C(F)(F)F)n(C)n1 [Example 63, N-(3-Fluoro-5-methyl-pyridin-4-yl)-5-[2-fluoro-6-(trifluoromethyl)-phenyl]-1-methyl-1H-pyrazole-3-carboxylic acid amide]	
> 70		Cc1ccncc1-c1cc(C(=O)Nc2ccccc2C(F)(F)F)nn1C [Example 64, 1-Methyl-5-(4-methyl-pyridin-3-yl)-N-[2-(trifluoromethyl)-phenyl]-1H-pyrazole-3-carboxylic acid amide]	
> 70		Cc1ccncc1-c1cc(C(=O)Nc2c(C)cncc2F)nn1C [Example 65, N-(3-Fluoro-5-methyl-pyridin-4-yl)-1-methyl-5-(4-methyl-pyridin-3-yl)-1H-pyrazole-3-carboxylic acid amide]	
